Test results reported in patent US7157569B2, “Mutation associated with epilepsy” (Bionomics Limited, priority 2000, dated 2007).
Entries after “also recorded” stand apart in the source; their conditions may differ.

How the values were obtained:
[1] = target: T1, mutant [α1β2γ2 (R43Q)] GABAA receptor (Homo sapiens, UniProt P14867+P18507+P47870, R82Q/T120M/T181S); test: Zn2+ sensitivity of GABA-activated currents in Xenopus laevis oocytes, R43Q mutant channels; format: cell-based
T1 construct: expressed in transfected cells; host or cells: Xenopus laevis oocytes (cRNA injection)
T1 sequence (P14867 28-456): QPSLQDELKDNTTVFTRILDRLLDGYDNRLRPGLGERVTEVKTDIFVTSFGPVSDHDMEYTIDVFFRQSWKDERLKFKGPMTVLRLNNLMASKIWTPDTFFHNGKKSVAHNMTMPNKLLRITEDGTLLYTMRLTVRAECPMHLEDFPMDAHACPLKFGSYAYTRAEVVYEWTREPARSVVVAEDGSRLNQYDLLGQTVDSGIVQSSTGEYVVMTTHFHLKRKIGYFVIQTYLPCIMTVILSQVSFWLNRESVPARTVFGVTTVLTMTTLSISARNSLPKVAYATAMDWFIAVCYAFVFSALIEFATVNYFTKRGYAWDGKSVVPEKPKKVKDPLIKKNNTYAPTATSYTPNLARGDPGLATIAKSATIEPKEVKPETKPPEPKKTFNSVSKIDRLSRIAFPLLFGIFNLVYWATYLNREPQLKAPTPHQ
T1 sequence (P47870 26-512): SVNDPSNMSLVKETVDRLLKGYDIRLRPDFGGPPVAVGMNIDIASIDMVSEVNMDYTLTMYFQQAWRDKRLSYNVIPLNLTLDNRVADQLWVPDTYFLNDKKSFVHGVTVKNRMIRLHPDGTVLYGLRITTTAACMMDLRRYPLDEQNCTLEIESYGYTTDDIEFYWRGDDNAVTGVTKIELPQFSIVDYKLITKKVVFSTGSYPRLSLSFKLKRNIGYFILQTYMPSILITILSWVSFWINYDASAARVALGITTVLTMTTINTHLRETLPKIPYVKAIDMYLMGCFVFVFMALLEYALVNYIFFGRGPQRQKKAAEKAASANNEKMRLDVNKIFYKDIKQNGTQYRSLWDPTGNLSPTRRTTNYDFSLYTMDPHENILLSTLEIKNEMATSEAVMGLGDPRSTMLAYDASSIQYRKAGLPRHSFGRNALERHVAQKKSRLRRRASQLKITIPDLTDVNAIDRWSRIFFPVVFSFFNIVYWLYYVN
T1 sequence (P18507 40-467 isoform P18507-1 R82Q/T120M/T181S): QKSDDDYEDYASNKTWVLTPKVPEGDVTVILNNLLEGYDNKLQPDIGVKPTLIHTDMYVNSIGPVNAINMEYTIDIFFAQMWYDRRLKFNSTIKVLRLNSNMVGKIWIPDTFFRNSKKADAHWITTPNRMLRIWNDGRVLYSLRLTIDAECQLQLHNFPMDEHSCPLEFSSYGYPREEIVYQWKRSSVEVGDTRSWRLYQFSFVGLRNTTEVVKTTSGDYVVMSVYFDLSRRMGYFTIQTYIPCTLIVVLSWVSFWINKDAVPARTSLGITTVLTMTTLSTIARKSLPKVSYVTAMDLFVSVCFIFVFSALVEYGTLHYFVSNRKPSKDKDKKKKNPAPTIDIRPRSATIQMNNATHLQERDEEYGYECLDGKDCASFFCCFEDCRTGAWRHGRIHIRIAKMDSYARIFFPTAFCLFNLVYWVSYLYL
Procedure: (§1) To test the effects of the GABRG2 mutations on GABAA receptor function, electrophysiological analysis of Xenopus laevis oocytes were conducted. cDNAs encoding the GABRA1, GABRB2 and GABRG2 subunits of the human GABAA receptor were subcloned into pcDNA3.1(+). The c245G→A and c1168C→T mutations were introduced separately into GABRG2 of the human GABAA receptor using the QuickChange site directed mutagenesis kit (Stratagene, La Jolla, Calif.). The oligonucleotide represented by SEQ ID NO:50 (5′ GGATATGACAATAAACTTCAGCCTGATATAGGAGTGAAGCC 3′) was used to incorporate the c245G→A mutation, while the oligonucleotide represented by SEQ ID NO:51 (5′ GCGAATTCATTAAATGGTTGCTGATCTTGGGCG 3′) was used to incorporate the c1168C→T mutation. Successful mutagenesis was identified by DNA sequencing. Wild-type and mutant cDNAs were linearised and gel purified and cRNA was made using the T7 RNA polymerase Message Machine in vitro RNA synthesis kit (Ambion). Samples of cRNA were run on denaturing agarose gels to ensure they were the correct size and were not degraded. Xenopus laevis oocytes (stage V or VI) were microinjected with ˜25 ng of cRNA representing the GABAA subunits. A tenfold molar excess of wild-type and mutant GABRG2 was used to promote assembly of the ternary (GABRA1:GABRB2:GABRG2) rather than binary (GABRA1:GABRB2) complex. […]

[2] = target: T2, wild-type (α1β2γ2) GABAA receptor (Homo sapiens, UniProt P14867+P18507+P47870); design: expressed in transfected cells; conditions: correct assembly of GABRA1, GABRB2 and GABRG2; Draguhn et al, 1990; cited from earlier work
T2 sequence (P18507 40-467 isoform P18507-1 limits assumed, one chain of several): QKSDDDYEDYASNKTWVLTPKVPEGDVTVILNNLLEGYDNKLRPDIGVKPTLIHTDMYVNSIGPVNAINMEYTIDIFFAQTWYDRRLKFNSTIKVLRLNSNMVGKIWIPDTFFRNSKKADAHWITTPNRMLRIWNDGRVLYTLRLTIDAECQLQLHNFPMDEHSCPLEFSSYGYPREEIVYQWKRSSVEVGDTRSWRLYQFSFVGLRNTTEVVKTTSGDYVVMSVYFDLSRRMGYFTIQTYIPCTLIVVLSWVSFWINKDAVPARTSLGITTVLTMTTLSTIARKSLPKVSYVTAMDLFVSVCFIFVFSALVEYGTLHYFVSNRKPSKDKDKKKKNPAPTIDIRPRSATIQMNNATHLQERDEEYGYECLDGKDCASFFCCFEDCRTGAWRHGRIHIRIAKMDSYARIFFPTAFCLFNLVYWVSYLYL

[3] = target: T3, GABRA1 and GABRB2 (α1β2) GABAA receptor (Homo sapiens, UniProt P14867+P47870); design: expressed in transfected cells; conditions: GABRA1 and GABRB2 alone; Draguhn et al, 1990; cited from earlier work
T3 sequence (P14867 28-456): T1 sequence (P14867 28-456)
T3 sequence (P47870 26-512): T1 sequence (P47870 26-512)

[4] = target: T2, wild-type (α1β2γ2) GABAA receptor; test: Zn2+ sensitivity of GABA-activated currents in Xenopus laevis oocytes, wild-type channels; format: cell-based; design: expressed in transfected cells; host or cells: Xenopus laevis oocytes (cRNA injection); conditions: Zn2+ 10 μM, n=9
Procedure: as §1

[5] = target: T3, GABRA1 and GABRB2 (α1β2) GABAA receptor; test: Zn2+ sensitivity of GABA-activated currents in Xenopus laevis oocytes, GABRA1 and GABRB2 alone; format: cell-based; design: expressed in transfected cells; host or cells: Xenopus laevis oocytes (cRNA injection)
Procedure: as §1

[6] = test system: GABRA1:GABRB2:GABRG2(Q351X) GABAA receptor; test: GABA current response in Xenopus laevis oocytes, Q351X mutant; format: cell-based, human; conditions: 1:1:10 GABRA1:GABRB2:GABRG2(Q351X) cRNA injection ratio
Procedure: as §1

[7] = target: T4, GABRA1:GABRB2:GABRG2 wild-type GABAA receptor (Homo sapiens, UniProt P14867+P18507+P47870); test: GABA current response in Xenopus laevis oocytes, wild-type GABRG2; format: cell-based; conditions: 1:1:10 ratio with wild-type GABRG2
T4 construct: expressed in transfected cells; host or cells: Xenopus laevis oocytes (cRNA injection)
T4 sequence (P18507 40-467 isoform P18507-1 limits assumed, one chain of several): as above
Procedure: as §1

[8] = target: T5, GABRA1:GABRB2 GABAA receptor (Homo sapiens, UniProt P14867+P47870); test: GABA current response in Xenopus laevis oocytes, GABRA1:GABRB2:water; format: cell-based; conditions: 1:1:10 GABRA1:GABRB2:water injection ratio
T5 construct: expressed in transfected cells; host or cells: Xenopus laevis oocytes (cRNA injection)
T5 sequence (P14867 28-456): T1 sequence (P14867 28-456)
T5 sequence (P47870 26-512): T1 sequence (P47870 26-512)
Procedure: as §1

[9] = target: T6, GABAA receptor containing GABRG2(R43Q) (Homo sapiens, UniProt P14867+P18507+P47870, R82Q/T120M/T181S); test: GABA electrophysiological response in Xenopus oocytes, GABRG2(R43Q); format: cell-based; conditions: oocytes expressing GABRG2 or GABRG2(R43Q)
T6 construct: expressed in transfected cells; host or cells: Xenopus laevis oocytes (cRNA injection)
T6 sequence (P14867 28-456): T1 sequence (P14867 28-456)
T6 sequence (P47870 26-512): T1 sequence (P47870 26-512)
T6 sequence (P18507 40-467 isoform P18507-1 R82Q/T120M/T181S): T1 sequence (P18507 40-467 isoform P18507-1 R82Q/T120M/T181S)
Procedure: as §1

[10] = target: T7, wild-type GABRA1:GABRB2:GABRG2 (α1β2γ2) GABAA receptor (Homo sapiens, UniProt P14867+P18507+P47870); test: Diazepam potentiation of GABA currents, two-electrode voltage clamp in Xenopus laevis oocytes, wild-type channels; format: cell-based; conditions: GABA 1 μM, diazepam 1 μM
T7 construct: expressed in transfected cells; host or cells: Xenopus laevis oocytes (cRNA injection)
T7 sequence (P18507 40-467 isoform P18507-1 limits assumed, one chain of several): as above
Procedure: as §1, with “The oligonucleotide represented by SEQ ID NO:50 (5′ GGATATGACAATAAACTTCAGCCTGATATAGGAGTGAAGCC 3′) was used to incorporate the c245G→A mutation, while the oligonucleotide represented by SEQ ID NO:51 (5′ GCGAATTCATTAAATGGTTGCTGATCTTGGGCG 3′) was used to incorporate the c1168C→T mutation.” left out, “complex. Oocytes were then stored in OR2 buffer (82.5 mM NaCl, 2 mM KCl, 1 mM MgCl2, 5 mM HEPES, pH 7.5, supplemented with 2% foetal bovine serum, 100 U/ml penicillin, 100 μg/ml streptomycin, Life Technologies) and incubated at 18° C. for three to five days to allow for adequate receptor expression.” for “complex.”

[11] = target: T8, mutant GABRA1:GABRB2:GABRG2(R43Q) [α1β2γ2 (R43Q)] GABAA receptor (Homo sapiens, UniProt P14867+P18507+P47870, R82Q/T120M/T181S); test: Diazepam potentiation of GABA currents, two-electrode voltage clamp in Xenopus laevis oocytes, R43Q mutant channels; format: cell-based; conditions: for small, insignificant decrease in GABA current with diazepam, mean±SEM: GABA 1 μM, diazepam 1 μM, R43Q mutant channels, n=17, a decrease, not a potentiation
T8 construct: expressed in transfected cells; host or cells: Xenopus laevis oocytes (cRNA injection)
T8 sequence (P14867 28-456): T1 sequence (P14867 28-456)
T8 sequence (P47870 26-512): T1 sequence (P47870 26-512)
T8 sequence (P18507 40-467 isoform P18507-1 R82Q/T120M/T181S): T1 sequence (P18507 40-467 isoform P18507-1 R82Q/T120M/T181S)
Procedure: (§2) To test the effects of the GABRG2 mutations on GABAA receptor function, electrophysiological analysis of Xenopus laevis oocytes were conducted. cDNAs encoding the GABRA1, GABRB2 and GABRG2 subunits of the human GABAA receptor were subcloned into pcDNA3.1(+). The c245G→A and c1168C→T mutations were introduced separately into GABRG2 of the human GABAA receptor using the QuickChange site directed mutagenesis kit (Stratagene, La Jolla, Calif.). […] Successful mutagenesis was identified by DNA sequencing. Wild-type and mutant cDNAs were linearised and gel purified and cRNA was made using the T7 RNA polymerase Message Machine in vitro RNA synthesis kit (Ambion). Samples of cRNA were run on denaturing agarose gels to ensure they were the correct size and were not degraded. Xenopus laevis oocytes (stage V or VI) were microinjected with ˜25 ng of cRNA representing the GABAA subunits. A tenfold molar excess of wild-type and mutant GABRG2 was used to promote assembly of the ternary (GABRA1:GABRB2:GABRG2) rather than binary (GABRA1:GABRB2) complex. Oocytes were then stored in OR2 buffer (82.5 mM NaCl, 2 mM KCl, 1 mM MgCl2, 5 mM HEPES, pH 7.5, supplemented with 2% foetal bovine serum, 100 U/ml penicillin, 100 μg/ml streptomycin, Life Technologies) and incubated at 18° C. for three to five days to allow for adequate receptor expression. Current recordings from oocytes were made using a two-electrode voltage clamp (AxoClamp 2B, Axon Instruments), with recordings made at a holding potential of −80 mV. Electrodes were filled with 3 M KCl and were of 1–2 MΩ resistance. Oocytes were continuously perfused with ND96 solution (96 mM NaCl, 2 mM KCl, 1 mM MgCl2, 1.8 mM BaCl2 and 5 mM HEPES, pH 7.5). gamma-Aminobutyric acid (GABA; Sigma-Aldrich, Australia) was applied by bath perfusion.

[12] = test system: GABAA receptor from 50:50 mixture of GABRG2 and GABRG2(R43Q); test: Diazepam potentiation in oocytes injected with 50:50 mixture of GABRG2 and GABRG2(R43Q) cRNA; format: cell-based, human; conditions: n=8
Procedure: as §2, with “Current recordings from oocytes were made using a two-electrode voltage clamp (AxoClamp 2B, Axon Instruments), with recordings made at a holding potential of −80 mV. Electrodes were filled with 3 M KCl and were of 1–2 MΩ resistance. Oocytes were continuously perfused with ND96 solution (96 mM NaCl, 2 mM KCl, 1 mM MgCl2, 1.8 mM BaCl2 and 5 mM HEPES, pH 7.5). gamma-Aminobutyric acid (GABA; Sigma-Aldrich, Australia) was applied by bath perfusion.” left out

In the case of [Zn+2] [Zn^2+], the “effect of Zn2+ compared with wild-type GABRG2” value ([1]; GABRG2(R43Q) versus GABRG2 expressing oocytes) is listed as “same effect”, the “partial inhibition of the GABA current by Zn2+” value ([1]; Zn2+ 10 μM, R43Q mutant, n=9) is listed as 40±5% and the “sensitivity of currents to Zn2+” value [2] is listed as “significantly less sensitive”. For the same compound, the “sensitivity of currents to Zn2+” value [3] was “extremely sensitive”, the “partial inhibition of the GABA current by Zn2+” value [4] was 37±2% and the “GABA-activated current abolished by Zn2+” value ([5]; Zn2+ 10 μM, GABA 100 μM, α1β2 alone, n=8) was 89±7%. For the same compound, the “effect of Zn2+ on GABA-activated currents” value ([5]; oocytes expressing only GABRA1 and GABRB2) was “totally abolished”.

With NCCCC(=O)O [GABA, gamma-Aminobutyric acid] the “current response to GABA” value [6] was “abolishes responses to GABA; also recorded: no current response”, the “current response to GABA” value [7] was “strong current responses” and the “current response to GABA” value [8] was “gave current responses”. The “electrophysiological responses to GABA versus wild-type GABRG2” value [9] was “indistinguishable”.

For CN1C(=O)CN=C(c2ccccc2)c2cc(Cl)ccc21 [diazepam], the “increase of GABA currents by diazepam (potentiation), mean±SEM” value ([10]; n=20, P<0.01) was 303±33%, the “increase of GABA currents by diazepam (potentiation), mean±SEM” value ([10]; n=20, P<0.01, listed as Diazepam) was 302±33% and the “small, insignificant decrease in GABA current with diazepam, mean±SEM” value [11] was 10±6%. For the same compound, the “small, insignificant decrease in GABA current with diazepam, mean±SEM” value ([11]; listed as Diazepam) was 10%±6, the “diazepam potentiation” value ([11]; receptors containing the GABRG2(R43Q) subunit) was “completely abolished” and the intermediate diazepam potentiation [12] was 129±30%.
